Measurements as given in ChEMBL document CHEMBL4033694, “Synthesis, antimycobacterial activity and docking study of 2-aroyl-[1]benzopyrano[4,3-c]pyrazol-4(1H)-one derivatives and related hydrazide-hydrazones” (Bioorg Med Chem Lett, 2017).
In brackets after ≈: the same amount, converted by molar mass. Structures can show the parent of a compound that is named as a salt.

Columns and labels:
HEK-293T = assay: Cytotoxicity against HEK293T cells after 72 hrs by MTT assay; type: cell-based; details: Homo sapiens
[1] = Selectivity index, ratio of IC50 for HEK293T cells to MIC for Mycobacterium tuberculosis H37Rv; type: toxicity; details: human, read-out: Selectivity Index
[2] = tested on: Mycobacterium tuberculosis; assay: Antimicrobial activity against Mycobacterium tuberculosis H37Rv after 7 days by resazurin microtiter assay; type: functional; details: 168 h
[3] = Solubility of the compound in H2O; type: physicochemical
[4] = Solubility of the compound in CHCl3; type: physicochemical
[5] = Solubility of the compound in EtOH; type: physicochemical
[6] = Stability of the compound in DMSO-d6 solvent measured every 8 hrs for 12 days by 1H NMR spectra analysis; type: physicochemical; details: 288 h
[7] = Thermal stability of the compound in DMSO-d6 solvent at 37 degC by 1H NMR spectra analysis; type: physicochemical
[8] = Stability of the compound in DMSO-d6 solvent/middlebrook 7H9 broth media after 16 hrs by 1H NMR spectra analysis; type: physicochemical
[9] = Solubility of the compound in MeOH; type: physicochemical

SMILES | IC50 (HEK-293T) [µM] | selectivity ratio [1] | MIC [2] [µM] | solubility [3] | solubility [4] | solubility [5] | Stability [6] | Stability [7] | Stability [8] | solubility [9]
O=C(c1ccco1)n1cc2c(=O)oc3ccccc3c2n1 | > 200 | > 282 | 0.72 (≈ 0.202 µg/mL) |  |  |  |  |  |  | 
O=C(N/N=C/c1c(Cl)c2ccccc2oc1=O)c1ccc(Cl)cc1 | 21 | 33 | 0.55 (≈ 0.199 µg/mL) | Insoluble | Insoluble | Insoluble | Stable | Stable | Stable | Insoluble
COc1ccc(C(=O)N/N=C/c2c(Cl)c3ccccc3oc2=O)cc1 | 113 | 403 | 0.28 (≈ 0.0999 µg/mL) | Insoluble | Insoluble | Insoluble | Stable | Stable | Stable | Insoluble
NNC(=O)c1ccncc1 [ISONIAZID] |  |  | 0.79 (≈ 0.108 µg/mL) |  |  |  |  |  |  | 
CC[C@@H](CO)NCCN[C@@H](CC)CO [ETHAMBUTOL HYDROCHLORIDE] |  |  | 1.46 |  |  |  |  |  |  | 
Cc1occc1C(=O)n1cc2c(=O)oc3ccccc3c2n1 | > 200 | > 119 | 1.69 (≈ 0.497 µg/mL) |  |  |  |  |  |  | 
O=C(c1ccc(O)cc1O)n1cc2c(=O)oc3ccccc3c2n1 | > 200 | > 308 | 0.62 (≈ 0.2 µg/mL) | Insoluble | Insoluble | Insoluble | Stable | Stable | Stable | Insoluble
CN(C)c1ccc(C(=O)n2cc3c(=O)oc4ccccc4c3n2)cc1 | > 200 | > 408 | 0.59 (≈ 0.197 µg/mL) | Insoluble | Insoluble | Insoluble | Stable | Stable | Stable | Insoluble
O=C(N/N=C/c1c(Cl)c2ccccc2oc1=O)c1ccco1 | 63.6 | 236 | 0.63 (≈ 0.2 µg/mL) | Insoluble | Insoluble | Insoluble | Stable | Stable | Stable | Insoluble
O=C(c1ccc(O)cc1)n1cc2c(=O)oc3ccccc3c2n1 | > 200 | > 625 | 0.32 (≈ 0.098 µg/mL) |  |  |  |  |  |  | 
O=C(N/N=C/c1c(Cl)c2ccccc2oc1=O)c1ccc(O)cc1O |  |  | 0.56 (≈ 0.201 µg/mL) |  |  |  |  |  |  | 
COc1ccc(C(=O)n2cc3c(=O)oc4ccccc4c3n2)cc1 | > 200 | > 645 | 0.62 (≈ 0.199 µg/mL) | Insoluble | Insoluble | Insoluble | Stable | Stable | Stable | Insoluble
CN(C)c1ccc(C(=O)N/N=C/c2c(Cl)c3ccccc3oc2=O)cc1 | 18.7 | 20 | 0.54 (≈ 0.2 µg/mL) | Insoluble | Insoluble | Insoluble | Stable | Stable | Stable | Insoluble
